Consider 7 compounds from patent publication US4948880A, “Anthracycline derivatives having cytostatic activity” (Behringwerke Aktiengesellschaft, priority 1986, dated 1990).

The IC50 is the midpoint of a concentration-inhibition curve.

The conditions of data set [1]: light / sunlight; cited from earlier work.
Data set [2] concerns mouse L1210 leukemia cells. The data set is described as follows: Formation of L1210 leukemia cell colonies in soft agar (cytostatic activity). The format is cell-based. As to conditions: Mus musculus, colonies > 60 μm, % of untreated control. The protocol:
The cytostatic activity of the compounds according to the invention have been tested using mouse L1210 leukemia cells. Use was made for this by the formation of L1210 leukemia cell colonies in agar plates. This method is used to detect the effect of the test substances on the growth behavior of the cells over 1 hour or over several generations. In this connection, with a cell cycle time of 10-12 hours, about 14 consecutive generations are observed in a 7-day duration of the test. In this test, the substances having cytostatic activity according to the invention bring about a reduction, compared with an untreated control sample, in the number of colonies which is to be observed.
Procedure for Determining the Formation of L1210 Leukemia Cell Colonies in Soft Agar
500 leukemia cells per plate were incubated with various concentrations of the test substance at 37° C. for 1 hour. These cells were then washed twice with McCoy 5A medium, 0.3% agar was added, and finally the mixture was poured into Petri dishes. Controls were incubated only with fresh medium. In place of the incubation for one hour, in some cases various concentrations and test substances were mixed with the upper agar layer in order in this way to achieve continuous exposure of the cells throughout the incubation time. After the agar had solidified, the plates were incubated in an incubator at 37° C. for 7 days (5% by volume CO2, 95% relative atmospheric humidity). Thereafter the number of colonies with a diameter of more than 60 μm which had formed was counted. The results have been stated as the number of colonies in treated agar plates as a percentage of the untreated control. The dose-effect graph obtained in this way was used to determine the IC50 as a measure of the activity of the substance. The results for the compounds described here are compiled in Table 1 which follows, comparing with adriamycin.

Where [3] appears, read: L1210, 168 h, continuous exposure, test substance mixed with upper agar layer, 7 days, 37° C., read-out: Continuous incubation IC50.
The mark [4] stands for this setting: L1210, 1 hour incubation with test substance at 37° C., then washed, 7 days in agar, read-out: 1 h incubation IC50.

SMILES strings stand for the structures. Converted amounts (≈) assume the structure as drawn. Where two headings read alike, the source gives them in different places. A value given as a limit tells only on which side of the number the result lay.

As to `COc1cccc2c1C(=O)c1c(O)c3c(c(O)c1C2=O)C[C@@](O)(C(=O)CO)C[C@@H]3O[C@H]1C[C@H](N)[C@H](O)[C@H](C)O1` [Adriamycin, 7-O-α-L-daunosaminyl-adriamycinone, reference compound], the “photolytic decomposition on exposure to light” value (shortened to “photolytic decomposition”) in data set [1] is “photolytically decomposed on exposure to light”. Besides, the half-maximal inhibitory concentration (IC50) in data set [2] (L1210, 168 h, read-out: Continuous incubation IC50, continuous exposure, test substance mixed with upper agar layer, 7 days, 37° C.) is 0.02 µg/mL (≈ 0.0368 µM); in data set [2] (L1210, read-out: 1 h incubation IC50, 1 hour incubation with test substance at 37° C., then washed, 7 days in agar), 0.04 µg/mL (≈ 0.0736 µM).
`CC[C@@]1(O)C[C@H](O[C@H]2C[C@H](N(C)C)[C@H](O[C@H]3C[C@H](O)[C@H](O[C@H]4CCC(=O)[C@H](C)O4)[C@H](C)O3)[C@H](C)O2)c2c(cc3c(c2O)C(=O)c2c(O)cccc2C3=O)[C@H]1C(=O)OC` [aclacinomycin A]: the “photolytic decomposition” value in data set [1] was “undergoes photolytic decomposition to a small extent”.
Take `CCCCCN(C)[C@H]1C[C@H](O[C@H]2C[C@](O)(CC)[C@H](O)c3c(O)c4c(c(O)c32)C(=O)c2c(O)ccc(O)c2C4=O)O[C@@H](C)[C@H]1O` [compound 27, 7-O-(3'-N-Methyl-3'-N-pentyl-α-L-daunosaminyl)-β-isorhodomycinone]: the concentration for half-maximal inhibition (IC50) in data set [2] (setting [3]) is 0.06 µg/mL (≈ 0.0975 µM); in data set [2] (setting [4]) it was over 1 µg/mL.
`CC[C@@]1(O)C[C@H](O[C@H]2C[C@H](N(C)Cc3ccccc3)[C@H](O)[C@H](C)O2)c2c(O)c3c(c(O)c2[C@H]1O[C@H]1C[C@H](N(C)Cc2ccccc2)[C@H](O)[C@H](C)O1)C(=O)c1cccc(O)c1C3=O` [compound 28, 7,10-O-bis-(3'-N-Benzyl-3'-N-methyl-α-L-daunosaminyl)-β-rhodomycinone]: the IC50 worked out at 0.0065 µg/mL (≈ 0.00762 µM) in data set [2] (setting [3]) and 0.12 µg/mL (≈ 0.141 µM) in data set [2] (setting [4]).
Regarding `CCCCCN(C)[C@H]1C[C@H](O[C@H]2C[C@](O)(CC)[C@H](O[C@H]3C[C@H](N(C)CCCCC)[C@H](O)[C@H](C)O3)c3c(O)c4c(c(O)c32)C(=O)c2c(O)cccc2C4=O)O[C@@H](C)[C@H]1O` [compound 29, 7,10-O-bis-(3'-N-Methyl-3'-N-pentyl-α-L-daunosaminyl)-β-rhodomycinone], the concentration for half-maximal inhibition (IC50) in data set [2] (setting [3]) amounted to 0.1 µg/mL (≈ 0.123 µM); in data set [2] (setting [4]), 0.6 µg/mL (≈ 0.738 µM).
For `CN[C@H]1C[C@H](O[C@H]2C[C@](O)(C(C)O)Cc3c(O)c4c(c(O)c32)C(=O)c2c(OC)cccc2C4=O)O[C@@H](C)[C@H]1O` (stereo partly shown) [compound 32, 3'-N-Methyl-13-dihydrodaunorubicin] the same measures were 0.5 µg/mL (≈ 0.92 µM) and 1.3 µg/mL (≈ 2.39 µM).
For the compound `COc1cccc2c1C(=O)c1c(O)c3c(c(O)c1C2=O)C[C@@](O)(C(C)=O)C[C@@H]3O[C@H]1C[C@H](N)[C@H](O)[C@H](C)O1` [daunomycin, 7-O-α-L-daunosaminyl-daunomycinone], the “photolytic decomposition” value in data set [1] is given as “photolytically decomposed on exposure to light”.
